Assay: excess molar enthalpy (molar enthalpy of mixing); xn = mol fraction of the nth substance listed
Conditions: 298.15 K, 100 kPa, Liquid, Isoperibol calorimetry

CCCOCC(C)O (stereo not given) [1-propoxy-2-propanol] + O
Conditions	excess molar enthalpy [kcal/mol]
x1 = 0.00199	-0.012
x1 = 0.00509	-0.0263
x1 = 0.00988	-0.0454
x1 = 0.01524	-0.0693
x1 = 0.02082	-0.0765
x1 = 0.02573	-0.0884
x1 = 0.0299	-0.11
x1 = 0.03983	-0.12
x1 = 0.05248	-0.124
x1 = 0.09463	-0.141
x1 = 0.09856	-0.141
x1 = 0.1198	-0.146
x1 = 0.1284	-0.146
x1 = 0.1504	-0.148
x1 = 0.1711	-0.148
x1 = 0.2286	-0.148
x1 = 0.297	-0.141
x1 = 0.3791	-0.131
x1 = 0.4088	-0.129
x1 = 0.4372	-0.124
x1 = 0.494	-0.105
x1 = 0.5971	-0.0837
x1 = 0.6988	-0.0669
x1 = 0.7467	-0.0598
x1 = 0.8056	-0.0478
x1 = 0.8534	-0.0382
x1 = 0.8713	-0.0335
x1 = 0.9051	-0.0263
x1 = 0.9205	-0.0215
x1 = 0.9499	-0.0143

— the NIST ThermoML archive (doi:10.1016/j.jct.2015.07.044)
